Results taken from US20180193287A1, “HOPS-BASED SUBSTANCE AND USE OF THE SUBSTANCE” (John I. Haas, Inc., priority 2015, published 2018).

Test system: acute liver damage in mice as a result of alcohol
Assay: acute liver damage in mice as a result of alcohol, liver tissue triglyceride (FIG. 3)
Format: in vivo
Details: alcohol by gavage 6 g/kg body weight, XN 5 mg/kg and/or IAA 25 mg/kg body weight applied simultaneously, liver removed after 12 hours, P<0.05
Protocol: A model used was acute liver damage in mice as a result of alcohol. Alcohol was applied to the mice by gavage (6 g/kg body weight). Furthermore, xanthohumol (XN; 5 mg/kg body weight), iso-alpha-acid (IAA; 25 mg/kg body weight) and a combination of xanthohumol (5 mg/kg body weight) and iso-alpha-acid (25 mg/kg body weight) were simultaneously applied in the experimental groups. After 12 hours the animals were sacrificed, the liver tissue was removed, and the triglyceride (TG) […] therein was determined. A control group of untreated mice (no-Alc) was also tested. In the “alcohol group”, a significant increase in TG can be seen in comparison with the “non-alcohol group”.
Again, the significance level is P<0.05. CTR stands for a group of alcohol-treated mice without addition of xanthohumol, iso-alpha-acid or a combination of xanthohumol and iso-alpha-acid.

## CC(C)=CCC(=O)[C@@]1(O)C(O)=C(C(=O)CC(C)C)C(=O)C1CC=C(C)C (stereo partly drawn) [iso-alpha-acid]
  triglyceride (TG) content of liver tissue versus alcohol group: does not differ significantly

## COc1cc(O)c(CC=C(C)C)c(O)c1C(=O)/C=C/c1ccc(O)cc1 [xanthohumol]
  triglyceride (TG) content of liver tissue versus alcohol group: does not differ significantly
